ChEMBL document CHEMBL1681684, “Structure based design of heat shock protein 90 inhibitors acting as anticancer agents” (Bioorg Med Chem, 2011)

Tests used:
SK-MEL-2 [1] = assay: Anticancer activity against human SK-MEL-2 cells assessed as growth inhibition at 100 uM by MTT assay; format: functional
SK-OV-3 [2] = assay: Anticancer activity against human SKOV3 cells assessed as growth inhibition at 100 uM by MTT assay; format: functional
HT-29 [3] = assay: Anticancer activity against human HT-29 cells by MTT assay; format: functional, cell-based
A549 [4] = assay: Anticancer activity against human A549 cells by MTT assay; format: functional, cell-based
SK-MEL-2 [5] = assay: Anticancer activity against human SK-MEL-2 cells by MTT assay; format: functional, cell-based
A549 [6] = assay: Anticancer activity against human A549 cells assessed as growth inhibition at 100 uM by MTT assay; format: functional
SK-OV-3 [7] = assay: Anticancer activity against human SKOV3 cells by MTT assay; format: functional, cell-based
HT-29 [8] = assay: Anticancer activity against human HT-29 cells assessed as growth inhibition at 100 uM by MTT assay; format: functional
DU-145 [9] = assay: Anticancer activity against human DU145 cells assessed as growth inhibition at 100 uM by MTT assay; format: functional
DU-145 [10] = assay: Anticancer activity against human DU145 cells by MTT assay; format: functional, cell-based
SK-MEL-2 [11] = assay: Anticancer activity against human SK-MEL-2 cells assessed as growth inhibition at 10 uM by MTT assay; format: functional
DU-145 [12] = assay: Anticancer activity against human DU145 cells assessed as growth inhibition at 10 uM by MTT assay; format: functional
HT-29 [13] = assay: Anticancer activity against human HT-29 cells assessed as growth inhibition at 10 uM by MTT assay; format: functional
MCF7 = assay: Anticancer activity against human MCF7 cells by MTT assay; format: functional, cell-based

Row | SMILES | inhibition at 100 µM (SK-MEL-2 [1]) [%] | inhibition at 100 µM (SK-OV-3 [2]) [%] | IC50 (HT-29 [3]) [µM] | IC50 (A549 [4]) [µM] | IC50 (SK-MEL-2 [5]) [µM] | inhibition at 100 µM (A549 [6]) [%] | IC50 (SK-OV-3 [7]) [µM] | inhibition at 100 µM (HT-29 [8]) [%] | inhibition at 100 µM (DU-145 [9]) [%] | IC50 (DU-145 [10]) [µM] | inhibition at 10 µM (SK-MEL-2 [11]) [%] | inhibition at 10 µM (DU-145 [12]) [%] | inhibition at 10 µM (HT-29 [13]) [%] | IC50 (MCF7) [µM]
1 | O=S(=O)(NCCc1c[nH]c2ccc(F)cc12)c1ccc(Br)cc1OC(F)(F)F | 34 | 22.5 | 33.4 | 55 | 45.8 | 43.5 | > 100 | 63.5 | 44.4 | 39.4 |  |  |  | 
2 | C[C@H](Nc1nc(N2CCNCC2)nc2ccccc12)c1ccccc1 | 85.6 | 86.6 | 4.1 | 13.3 | 5.14 | 90.2 | 14.6 | 86.5 | 87.2 | 12.6 |  |  |  | 
3 | CCOc1ccc(Nc2nc(NCc3ccccc3)c3ccccc3n2)cc1 | 88 | 91.8 | 16.5 |  |  |  |  | 92.9 |  | 19.2 | 91.6 | 58 | 83.3 | 
4 | CCC(C)(C)c1ccc(O)c(NS(=O)(=O)c2ccccc2OC(F)(F)F)c1 | 52.4 | 46.4 | 24.1 | 38.8 | 53.6 | 50.9 | 38.8 | 37.5 | 60.1 | > 100 |  |  |  | 
5 | O[C@H]1CCN(c2nc(Nc3cccc4c3CCCC4)c3ccccc3n2)C1 | 79.5 | 89.5 | 7.12 | 12.9 | 15.9 | 88.8 | 16.8 | 86.1 | 88.7 | 16.8 |  |  |  | 
6 | O=[N+]([O-])c1cccnc1Sc1ccccc1NS(=O)(=O)c1ccc(Cl)cc1Cl | 40.1 | 44 | 63.1 | 26 | 42.3 | 47.9 | 70 | 44.6 | 54.5 | 53.9 |  |  |  | 
7 | O=S(=O)(NCCC(c1ccccc1)c1ccccc1)c1ccc(Cl)cc1 | 77.8 | 62 | 18.8 | 30.9 | 18.9 | 65.7 | 35 | 87.5 | 73.5 | 26.1 |  |  |  | 
8 | Oc1ccc(C2=Nc3ccccc3S[C@H](c3ccccc3)C2)cc1 | 57.1 | 51.6 | 40.7 | 33.2 | 47.1 | 55.8 | 61.6 | 67.9 | 59.9 | 30.6 |  |  |  | 
9 | CN(C)CCNc1nc(-c2ccc(C(C)(C)C)cc2)nc2ccccc12 | 89.6 | 92.3 | 8.72 |  |  |  |  | 93.4 |  | > 50 | 91.5 | 86.5 | 89.8 | 
10 | Fc1ccc(Nc2nc(NCc3ccccc3)c3ccccc3n2)cc1 | 89.9 | 91.3 | 2.41 |  |  |  |  | 93.4 |  | 23.4 | 69.9 | 38.2 | 74.4 | 
11 | Cc1cccc(Nc2nc(NCc3ccco3)c3ccccc3n2)c1 | 78.7 | 93.3 | 10.1 |  |  |  |  | 93.6 |  | 19.7 | 77.6 | 53.7 | 77.9 | 
12 | COc1ccccc1N/N=C1/C(=O)N(C(N)=S)N=C1c1ccccc1 | 61 | 45.5 | 48.5 | 45.2 | 34.9 | 51.9 | 76 | 38 | 48 | 46.8 |  |  |  | 
13 | Oc1ccc(Nc2nc(NCc3ccco3)c3ccccc3n2)cc1 | 86.2 | 92.3 | 14 |  |  |  |  | 93.3 |  | 22.7 | 39 | 30.3 | 67.6 | 
14 | O=S(=O)(Nc1ccccc1Oc1ccc(Cl)cc1Cl)c1ccccc1 | 43.9 | 40.1 | 65.1 | 35.5 | 44.2 | 55 | > 100 | 51.1 | 52.6 | 44 |  |  |  | 
15 | COc1ccc(Nc2nc(NCc3ccco3)c3ccccc3n2)cc1 | 89.3 | 92.5 | 0.902 |  |  |  |  | 90.9 |  | 24.5 | 22.8 | 28.7 | 64.2 | 7.25
16 | COc1ccc(Nc2nc(NCc3ccccc3)c3ccccc3n2)cc1 | 89.3 | 92.3 | 13.4 |  |  |  |  | 92.9 |  | 21.3 | 81.2 | 52.2 | 80.7 | 
17 | COc1cc(C2N(c3ccc(C)cc3)CCN2c2ccc(C)cc2)ccc1O | 58.3 | 34.3 | 27.6 | 27.6 | 32.9 | 51.9 | > 100 | 64.8 | 40.7 | 43.1 |  |  |  | 
18 | Oc1cccc(Nc2nc(NCc3ccccc3)c3ccccc3n2)c1 | 78.9 | 85.5 | 15.8 |  |  |  |  | 81.9 |  | 22.6 | 46.7 | 35 | 61.3 | 
